Test results as given in patent publication US20060040924A1, “Derivatives of aryl (or heteroaryl) azolylcarbinols for the treatment of renal colic” (Laboratorios Dr. Esteve S.A., priority 2004, published 2006).

System: patients presenting with acute pain from suspected renal colic
Assay: Clinical Study A: analgesic efficacy and safety of cizolirtine citrate versus sodium metamizol, single intravenous dose
Assay type: in vivo, human
Conditions: for proportion of patients showing complete pain relief / proportion of patients showing satisfactory pain relief (decrease of pain intensity ≧50%): VAS at t+30 min; for Pain in the VAS at t + 30 min (LSM [SEM]), primary efficacy endpoint: per protocol population, 100 mm VAS, 30 min after start of single iv infusion (350 mg cizolirtine citrate or 2,500 mg sodium metamizol), adjusted means; for number of adverse events: per treatment group (32 randomized each), vomits and one episode of fever, all mild or moderate, none serious
Protocol: Objectives: to compare the analgesic efficacy and safety of cizolirtine citrate, an inhibitor of the release of the substance P, versus sodium metamizol to treat acute pain. Method: sixty four patients presenting with acute pain from suspected renal colic were randomized to a single intravenous dose of either 350 mg of cizolirtine citrate or 2,500 mg of sodium metamizol. Pain was assessed throughout 6 hours by means of visual analogical (VAS) and categorical scales. Results: renal colic was confirmed in all patients randomized. After 30 minutes, pain adjusted mean scores (100 mm VAS) were (LSM±SEM) 39.203±4.4 mm and 30.155±4.2 mm. In the cizolirtine and metamizol groups, respectively (p=0.1203). […] However, efficacy was lower than that of the comparator, an established treatment.
Study population: Subjects of either sex aged between 18 and 65 years old suffering moderate to severe pain due to a suspected renal colic starting within previous 24 hour and having a urine dipstick test positive for haematuria. Since this was an exploratory pilot phase II study, a formal sample size calculation was not performed. Moreover, no previous information regarding a comparison between the effects of sodium metamizol and placebo as analgesics for the management of renal colic could be found. Therefore, a minimum effect size to establish a non-inferiority margin was not be established. Nevertheless, to detect a difference of at least 25 mm in pain intensity measured with the VAS assuming a common standard deviation of 36.1 by means of a one-sided t test, 26 patients per group were necessary. Considering a dropout rate of 20%, 64 patients were recruited in the study
Study treatments: Either one single 350 mg dose of cizolirtine citrate or one single 2,500 mg dose of sodium metamizol by slow intravenous infusion in 15 minutes in a double-blind and randomized fashion and in a 1:1 proportion. Rescue doses of butorphanol were given as needed but were not allowed during the first 30 minutes.
Measurements: Patients ranked their pain intensity on both a visual analogical scale (VAS) and a verbal categorical scale at baseline and 15, 30 and 45 minutes and 1, 2, 3, 4, […] after receiving the study drug. Vital signs were determined also at 15, 30 and 45 minutes and at 1 and 6 hours. Active questioning for adverse events since receiving study medication was done after 2 hours. Confirmatory diagnosis of an ureteral stone had to be established before the end of the study.
Primary endpoint: mean pain intensity as determined by the VAS 30 minutes after the start of study drug administration (t+30 min).
Statistics: Demographic and baseline continuous variables values were compared between treatment groups by means of a t test. Primary efficacy analyses were performed in the per protocol population. An analysis of covariance model with the factors treatment, centre and the treatment by centre interaction and considering the baseline value as a covariate was used or the comparison between the groups. In addition, the bilateral 95% confidence interval was calculated for the difference between treatments.
The proportions of patients with complete and satisfactory pain relief between treatments at t+30 min were compared between treatment groups by means of a chi-square test and also the bilateral 95% confidence intervals for the differences were calculated. The time-treatment variables were evaluated by means of the Kaplan-Meier method and the log-rank test was used to compare the treatment groups, pain intensity differences as determined by means of the visual analogical scale (APID), pain intensity differences as determined by means of the categorical scale (CPID) and relief of pain as determined by means of the categorical scale on pain relief (PAR) from baseline to t+30 min were compared between treatment groups by means of a repeated measures analysis of variance. […]

[1] = 30 min after start of single iv dose, versus baseline

Structure (SMILES) | mean decrease in pain intensity (VAS) at t+30 min [1] | mean reductions in pain intensity determined by the VAS at t+30 min [1] | proportion of patients showing complete pain relief | proportion of patients showing satisfactory pain relief (decrease of pain intensity ≧50%) | Pain in the VAS at t + 30 min (LSM [SEM]), primary efficacy endpoint | Pain in the VAS at t + 30 min (LSM [SEM]), primary efficacy endpoint (listed as metamizol) | number of adverse events | onset of analgesia relative to comparator (time-curves APID, CPID, PAR) (difference disappears after 2 hours)
Cc1c(N(C)CS(=O)(=O)[O-])c(=O)n(-c2ccccc2)n1C.[Na+] [Metamizol, sodium metamizol] | 69.1% | 57.1 mm | 56.3% | 75.0% | 30.155 mm | 30.155±4.2 mm | 3 | 
CN(C)CCO[C@H](c1ccccc1)c1ccnn1C.O=C(O)CC(O)(CC(=O)O)C(=O)O (racemic) [Cizolirtine, (±)-5-{α-[2-(dimethylamino)ethoxy]benzyl}-1-methyl-1H-pirazole citrate] | 57.2% |  | 48.4% | 64.5% | 39.203±4.4 mm |  | 3 | deferred with respect to that provided by metamizol
